Reference: patent US8389030B2, “Nematicides from Juglandaceae and methods of use thereof” (Redox Chemicals, Inc., priority 2004, dated 2013)

How the values were obtained:
nematodes in soil = assay: Orange grove field trial: reduction of nematodes in soil vs untreated soil; format: in vivo; conditions: clay loam soil, compared to untreated soil, NatureCur applied 3 times 30 days apart at 5000 ppm, the other agents applied once in mid-May
Description: (§1) A field trial was conducted on an orange grove, comparing the effect of the composition described in Example 1 (under its trade name, NatureCur™) against two widely used, commercially available nematicides, an emusifiable concentrate of 1,3 dichloropropene which can be applied to the soil after plants are planted (called a “post-plant” application) (Dow AgroSciences LLC, Indianapolis, Ind.), shown on the accompanying charts as “Cordon,” and imidacloprid, an insecticide marketed under the name Admire® (Bayer CropScience LP, Research Triangle Park, N.C.). For the soil treated with Cordon and the soil treated with Admire®, single applications of the agents were made in mid-May. The product NatureCur™ was applied in once in mid-May, once 30 days later in mid-June, and once again 30 days later in mid July, each time at a concentration of 5000 ppm. The soil in the grove was a clay loam, a very dense, heavy soil in which it is difficult to get agents to travel. Thus, the soil in this grove provided a particularly difficult test condition for NatureCur™, which has to infiltrate through the soil in water.
Samples were taken of the soil around the plants and of the roots. The percentage of reduction in number of nematodes in soil treated with the three agents compared to untreated soil is shown in Table 1 and FIG. 1.

nematodes in roots = assay: Orange grove field trial: reduction of nematodes in plant roots vs plants in untreated soil; format: in vivo; conditions: clay loam soil, compared to roots of plants in untreated soil, NatureCur applied 3 times 30 days apart at 5000 ppm, the other agents applied once in mid-May
Description: as §1
The percentage of reduction in number of nematodes in roots of plants whose soil was treated with the three agents compared to roots of plants in untreated soil is shown in Table 2 and FIG. 2.

## ClC=CCCl [1,3 dichloropropene]
Nematodes in soil
  Percent reduction in nematodes in soil: 58%
Nematodes in roots
  Percent reduction in nematodes in roots: 61%

## O=[N+]([O-])NC1=NCCN1Cc1ccc(Cl)nc1 [Imidacloprid, imidacloprid]
Nematodes in soil
  Percent reduction in nematodes in soil: 32%
Nematodes in roots
  Percent reduction in nematodes in roots: 46%
